# In patent US5922691A, “Crystalline maltotetraosyl glucoside, and its production and use” (Kabushiki Kaisha Hayashibara Seibutsu Kagaku Kenkyujo, priority 1994, dated 1999):
# What was measured:
# [1] = Hygroscopicity when allowed to stand in a room; assay type: physicochemical; details: for Hygroscopicity: allowed to stand in a room
# Method: Fifty parts by weight of 98% maltopentaose, a product commercialized by Hayashibara Biochemical Laboratories, Inc., Okayama, Japan, was dissolved in 200 parts by weight of water while heating and the resultant solution was heated to 40° C. and adjusted to pH 7.0, admixed with a non-reducing saccharide-forming enzyme prepared by the method in Experiment A-2 in an amount of 5 units/g maltopentaose, reacted for 24 hours and followed by heating at 100° C. for 20 minutes to inactivate the enzyme. The resultant solution contained about 90% maltotetraosyl glucoside, and the remains are maltopentaose. The solution was adjusted to 0.1N by adding sodium hydroxide, and heated at 100° C. for 2 hours to decompose reducing saccharides. The solution was decolored with activated carbon and desalted with ion-exchange resins (H^+ and OH^- form) to obtain 98% maltotetraosyl glucoside fraction. The fractions were pooled and the solution was concentrated to give a concentration of 60%, placed in a crystallizer and admixed with a crystalline maltotetraosyl glucoside in an amount of 2% as a seed crystal, and the resultant mixture is cooled gradually while stirring for crystallization to form a massecuit. The massecuit thus obtained was separated from molasses to obtain 99.9% hydrous crystalline maltotetraosyl glucoside in the yield against starting material of about 50%.
# The anhydrous crystalline maltotetraosyl glucoside can be favorably used as hygroscopic agent, dehydrating agent and chemical raw material, and further utilizable in a variety of compositions including foods, beverages, cosmetics, pharmaceuticals and shaped bodies, similar to hydrous crystalline maltotetraosyl glucoside in Example A-1.
# [2] = Reducing power by the Somogyi-Nelson method, represented by DE; assay type: physicochemical; details: high-purity lyophilized saccharide preparations
# Method: These high-purity saccharide preparations were tested for reducing power with the Somogyi-Nelson method and their reducing powers were represented by DE (dextrose equivalent).
# Solubility in water = assay type: physicochemical; details: in 100 ml of 25° C. water; read-out: Solubility (as anhydride)
# Method: (8) Solubility (as anhydride)
# Up to about 1 g each hydrous or anhydrous crystal was soluble in 100 ml of 25° C. water.
# [3] = Acute toxicity in mice upon oral administration; assay type: in vivo; details: mouse, in vivo, oral administration
# Method: (§1) Hydrous and anhydrous crystalline maltotetraosyl glucosides prepared by the method in Experiment B-1 were tested for acute toxicity in mice upon oral administration.
# mice = test: Acute toxicity in mice upon oral administration; assay type: in vivo; details: oral, maximum administrable doses
# Method: as §1
Structure (SMILES),Hygroscopicity [1],"DE (dextrose equivalent), reducing power [2]",also measured
"OC[C@H]1O[C@H](O[C@H]2O[C@H](CO)[C@@H](O[C@H]3O[C@H](CO)[C@@H](O[C@H]4O[C@H](CO)[C@@H](O[C@H]5O[C@H](CO)[C@@H](O)[C@H](O)[C@H]5O)[C@H](O)[C@H]4O)[C@H](O)[C@H]3O)[C@H](O)[C@H]2O)[C@H](O)[C@@H](O)[C@@H]1O [Example A-1, maltotetraosyl glucoside]",no hygroscopicity,,
"OC[C@H]1O[C@H](O[C@H]2O[C@H](CO)[C@@H](O[C@H]3O[C@H](CO)[C@@H](O[C@H]4O[C@H](CO)[C@@H](O[C@H]5O[C@H](CO)[C@@H](O)[C@H](O)[C@H]5O)[C@H](O)[C@H]4O)[C@H](O)[C@H]3O)[C@H](O)[C@H]2O)[C@H](O)[C@@H](O)[C@@H]1O [Example A-2, maltotetraosyl glucoside]",substantially no hygroscopicity,,
"OC[C@H]1O[C@H](O[C@H]2O[C@H](CO)[C@@H](O[C@H]3O[C@H](CO)[C@@H](O[C@H]4O[C@H](CO)[C@@H](O[C@H]5O[C@H](CO)[C@@H](O)[C@H](O)[C@H]5O)[C@H](O)[C@H]4O)[C@H](O)[C@H]3O)[C@H](O)[C@H]2O)[C@H](O)[C@@H](O)[C@@H]1O [Example A-3, maltotetraosyl glucoside]",substantially no hygroscopicity,,
"OC[C@H]1O[C@H](O[C@H]2O[C@H](CO)[C@@H](O[C@H]3O[C@H](CO)[C@@H](O[C@H]4O[C@H](CO)[C@@H](O[C@H]5O[C@H](CO)[C@@H](O)[C@H](O)[C@H]5O)[C@H](O)[C@H]4O)[C@H](O)[C@H]3O)[C@H](O)[C@H]2O)[C@H](O)[C@@H](O)[C@@H]1O [Example A-4, maltotetraosyl glucoside]",exhibited hygroscopicity,,Water content after standing in a room ([1]; after conversion into hydrous crystal): about 4%
"OC[C@H]1O[C@H](O[C@H]2O[C@H](CO)[C@@H](O[C@H]3O[C@H](CO)[C@@H](O[C@H]4O[C@H](CO)[C@@H](O[C@H]5O[C@H](CO)[C@@H](O)[C@H](O)[C@H]5O)[C@H](O)[C@H]4O)[C@H](O)[C@H]3O)[C@H](O)[C@H]2O)[C@H](O)[C@@H](O)[C@@H]1O [Example A-5, maltotetraosyl glucoside]",substantially no hygroscopicity,,
"OC[C@H]1O[C@H](O[C@H]2O[C@H](CO)[C@@H](O[C@H]3O[C@H](CO)[C@@H](O)[C@H](O)[C@H]3O)[C@H](O)[C@H]2O)[C@H](O)[C@@H](O)[C@@H]1O [PI, α-glucosyl trehalose (or α-maltosyl glucoside)]",,0.83,
"OC[C@H]1O[C@H](O[C@H]2O[C@H](CO)[C@@H](O[C@H]3O[C@H](CO)[C@@H](O[C@H]4O[C@H](CO)[C@@H](O)[C@H](O)[C@H]4O)[C@H](O)[C@H]3O)[C@H](O)[C@H]2O)[C@H](O)[C@@H](O)[C@@H]1O [PII, α-maltosyl trehalose (or α-maltotriosyl glucoside)]",,0.35,
"OC[C@H]1O[C@H](O[C@H]2O[C@H](CO)[C@@H](O[C@H]3O[C@H](CO)[C@@H](O[C@H]4O[C@H](CO)[C@@H](O[C@H]5O[C@H](CO)[C@@H](O)[C@H](O)[C@H]5O)[C@H](O)[C@H]4O)[C@H](O)[C@H]3O)[C@H](O)[C@H]2O)[C@H](O)[C@@H](O)[C@@H]1O [PIII, α-maltotriosyl trehalose (or α-maltotetraosyl glucoside)]",,0.10,
"OC[C@H]1O[C@H](O[C@H]2O[C@H](CO)[C@@H](O[C@H]3O[C@H](CO)[C@@H](O[C@H]4O[C@H](CO)[C@@H](O[C@H]5O[C@H](CO)[C@@H](O[C@H]6O[C@H](CO)[C@@H](O)[C@H](O)[C@H]6O)[C@H](O)[C@H]5O)[C@H](O)[C@H]4O)[C@H](O)[C@H]3O)[C@H](O)[C@H]2O)[C@H](O)[C@@H](O)[C@@H]1O [PIV, α-maltotetraosyl trehalose (or α-maltopentaosyl glucoside)]",,0.27,
"OC[C@H]1O[C@H](O[C@H]2O[C@H](CO)[C@@H](O[C@H]3O[C@H](CO)[C@@H](O[C@H]4O[C@H](CO)[C@@H](O[C@H]5O[C@H](CO)[C@@H](O[C@H]6O[C@H](CO)[C@@H](O[C@H]7O[C@H](CO)[C@@H](O)[C@H](O)[C@H]7O)[C@H](O)[C@H]6O)[C@H](O)[C@H]5O)[C@H](O)[C@H]4O)[C@H](O)[C@H]3O)[C@H](O)[C@H]2O)[C@H](O)[C@@H](O)[C@@H]1O [PV, α-maltopentaosyl trehalose (or α-maltohexaosyl glucoside)]",,0.23,
"OC[C@H]1O[C@H](O[C@H]2O[C@H](CO)[C@@H](O[C@H]3O[C@H](CO)[C@@H](O[C@H]4O[C@H](CO)[C@@H](O[C@H]5O[C@H](CO)[C@@H](O)[C@H](O)[C@H]5O)[C@H](O)[C@H]4O)[C@H](O)[C@H]3O)[C@H](O)[C@H]2O)[C@H](O)[C@@H](O)[C@@H]1O [hydrous crystal, O-α-D-glucopyranosyl-(1→4)-O-α-D-glucopyranosyl-(1→4)-O-α-D-glucopyranosyl-(1→4)-α-D-glucopyranosyl α-D-glucopyranoside]",,,solubility (Solubility in water): ~10000 µg/mL; LD50 [3]: ≥ 50000 mg/kg; Mortality (mice): no mouse was died
